Reference: patent US20040242590A1, “Pharmaceutical composition comprising gamma-butyrobetaine” (priority 2001, published 2004)
“Also recorded” adds a separate entry of the source. Structures can show the parent of a compound that is named as a salt.

Assays:
[1] = tested on: intracorporeal pressure (corpus cavernosum penis); test: intracorporeal pressure in narcotized rats, intracavernous injection; type: in vivo; conditions: for Increase of intracorporeal pressure, % of papaverine: in % of the increase produced by papaverine
Protocol: (§1) The influence of the experimental substances on the penile erection was evaluated using the experimental model, where changes of intracorporeal pressure was measured (Chen K K et al. J Urol, 1992;147:1124). Rats were anesthetized by sodium pentobarbital (50 mg/kg i.p. plus additionally 8 mg/kg/h i.v.). Body temperature was kept at 37-37.4° C. (rectal control) by heating lamp. Endotracheal tube was inserted to assure adequate respiration under anesthesia. Number 25 needle filled with heparinized saline was connected to pressure transducer and introduced into corpus cavernosum penis. Intracavernous pressure and II standard lead on an ECG was continuously recorded on physiograph DMP-4B (Narco Bio-Systems, USA). In some experiments arterial pressure in common carotid artery was also recorded. The effects of experimental substances were determined both at intravenous and intracavernous introduction route. For the intracorporeal injection the substances were dissolved in isotonic (0.9%) NaCl solution and the dose introduced in 0.05 ml of liquid. […] Gamma-butyrobetaine (GBB) was introduced separately and in combination with THP or phosphodiesterase inhibitor, in particular, sildenafil. Gamma-butyrobetaine (GBB) (intracavernous injection 0.02-0.1 mg per rat, usually 0.05 mg per rat; intravenously 2.0 mg/kg) and THP (intracavernous injection 0.2 mg per rat; intravenously 10.0 mg/kg) were introduced separately and as combination (GBB+THP).

[2] = tested on: intracavernous pressure (corpus cavernosum penis); test: intracavernous pressure in narcotized rats, intravenous injection; type: in vivo; conditions: for effect on intracorporeal pressure (in words): intravenous; for Changes of intracavernous pressure / Duration of effect / Reflectory increase of intracavernous pressure: intravenously: GBB 2.0 mg/kg, THP 10.0 mg/kg, sildenafil 3.0 mg/kg, papaverine 2.0 mg/kg
Protocol: as §1, with “Adult male rats, weighing 300-410 g were used. The influence” for “The influence”, “combination (GBB+THP). […] Since the intracavernous injection is not popular due to inconvenience to patient, intravenous route was selected for further evaluation.” for “combination (GBB+THP).”

[3] = tested on: copulating activity of male rats; test: rat copulating behaviour in state of physiological depression; type: in vivo, Wistar rats
Protocol: The pharmacological effects of GBB, THP and their combination on the sexual activity of mammals was investigated by a model based on rat copulating behaviour in state of physiological depression.
Experiments were conducted on adult Wistar rats of both sexes with initial body weight of 300-330 g. During the experiment, the animals were kept in standard crates in groups of 6. The feed was a standartized diet R70 (LABFOR, Lactamin AB, Sweden). The room temperature was kept at 21-23° C., relative humidity at 65±10%, 12 hour light/darkness cycle. During one week before the experiment it was established that the average water consumption by the rats was 8.2-12% (average —10%) of their body mass.
Male rats were distributed randomly into 4 groups, each of 6 animals, and supplied for 6 weeks with the following aqueous solutions:
Group 1 (Control Group)—ding water without any additives;
Group 2 (GBB Group)—drinking water was supplemented by gamma-butyrobetaine (0.015% by weight), resulting in the average daily gamma-butyrobetaine intake of 15 mg/kg;
Group 3 (THP Group)—drinking water was supplemented by THP (0.06% by weight), resulting in the average daily THP intake of 60 mg/kg;
Group 4 (GBB+THP Group)—drinking water was supplemented by THP (0.06% by weight) and gamma-butyrobetaine (0.015% by weight), resulting in the average daily […]) intake of 60 mg/kg and gamma-butyrobetaine intake of 15 mg/kg.
The copulating activity of male rats was tested four times: after one week, after four weeks, after six weeks and 48-50 hours after the discontinuation of substance intake, when all animals were receiving drinking water without additives.
The tests were conducted between 10 and 12 a.m. 6 male rats of one group were placed into a clean, well illuminated crate (box). After 5 min. adaptation period 2 female rats were placed into the box for 10 minutes. For each male rat the following data were collected:
1) copulating intensity (number of copulations during the exposition period);
3) postcoital period—the behaviour of male rats during 5 min. period after the removal of females. The postcoital behaviour was characterized by following marks: 0—the animal is passive, lays down; 1—the rat is quiet; grooming; 2—the rat is mobile, rutting; 3—the animal is active, aggressive.
The female rats used were in the estrus phase, induced by i.p. injection of 0.2 ml 0.1% estradiol dipropionate 48 h before the test.

[4] = subc.; cited from earlier work
[5] = 1 week of therapy, drinking water, GBB 15 mg/kg daily, THP 60 mg/kg daily
[6] = 1 week of therapy, drinking water, GBB 15 mg/kg daily, THP 60 mg/kg daily, 10 min exposition
[7] = 4 weeks of therapy, behaviour marks 0-3
[8] = 4 weeks of therapy, drinking water, GBB 15 mg/kg daily, THP 60 mg/kg daily
[9] = 6 weeks of therapy, behaviour marks 0-3
[10] = 6 weeks of therapy, drinking water, GBB 15 mg/kg daily, THP 60 mg/kg daily
[11] = Post-therapy (48-50 hours after discontinuation)
[12] = Post-therapy (48-50 hours after discontinuation), behaviour marks 0-3

Structure (SMILES)	effect on intracorporeal pressure (in words) [1]	Increase of intracorporeal pressure, % of papaverine ([1]; dose 0.2 mg per rat) [%]	effect on intracorporeal pressure (in words) [2]	Changes of intracavernous pressure [2] [mm Hg]	Duration of effect [2] [min]	Reflectory increase of intracavernous pressure [2] [mm Hg]	delay time before attempts of mounting [3, 5] [min]	number of copulations [3, 6]	rat post-coital agitation period [3, 7]	number of copulations [3, 8]	number of mounting attempts of male rats [3, 8]	rat post-coital agitation period [3, 9]	delay time before attempts of mounting [3, 10] [min]	number of mounting attempts of male rats [3, 10]	delay time before attempts of mounting [3, 11] [min]	number of copulations [3, 11]	number of mounting attempts of male rats [3, 11]	rat post-coital agitation period [3, 12]	further results
C[N+](C)(C)NCCC(=O)[O-] [THP, 3-(2,2,2-trimethylhydrazinium)propionate]	did not produce significant changes	7.3	little effect	1.3 ± 0.9	0.9 ± 0.5	2.7 ± 1.2	5.3 ± 1.0	0.5 ± 0.3	1.4 ± 0.5	1.2 ± 0.4	3.0 ± 0.7	1.8 ± 0.3	2.3 ± 0.5	3.7 ± 0.5	2.4 ± 0.7	1.0 ± 0.3	3.4 ± 0.7	1.2 ± 0.4	rat post-coital agitation period ([3]; 1 week of therapy, behaviour marks 0-3 during 5 min after removal of females): 1.0 ± 0.4; number of mounting attempts of male rats [3, 6]: 2.7 ± 0.6; delay time before attempts of mounting [3, 8]: 2.1 ± 0.5 min; number of copulations [3, 10]: 0.8 ± 0.3
C[N+](C)(C)CCCC(=O)[O-] [GBB, gamma-butyrobetaine]	pronounced dose-dependent, but relatively short-termed increase; also recorded: inferior to that of papaverine	–	highly efficient	–	2.8 ± 0.7	–	3.7 ± 0.9	0.8 ± 0.3	1.2 ± 0.3	1.3 ± 0.5	3.7 ± 0.7	1.5 ± 0.4	2.8 ± 0.9	3.3 ± 0.6	2.6 ± 0.6	0.7 ± 0.2	3.2 ± 0.5	1.2 ± 0.3	Increase of intracorporeal pressure, % of papaverine ([1]; dose 0.02 mg per rat): 30.6%; Increase of intracorporeal pressure ([1]; dose 0.05 mg per rat): 31.5 ± 5.1 mmHg; Increase of intracorporeal pressure, % of papaverine ([1]; dose 0.05 mg per rat): 85.7%; LD50 [4]: 7000 mg/kg
COc1ccc(Cc2nccc3cc(OC)c(OC)cc23)cc1OC [Papaverine, Papaverine hydrochloride]	–	100	little effect	0.6 ± 0.6	0.9 ± 0.9	0.3 ± 0.3	–	–	–	–	–	–	–	–	–	–	–	–	Duration of effect ([1]; dose 0.2 mg per rat): 8.8 ± 1.4 min; Increase of intracorporeal pressure ([1]; dose 0.2 mg per rat): 36.75 ± 4.1 mmHg
CCCc1nn(C)c2c(=O)[nH]c(-c3cc(S(=O)(=O)N4CCN(C)CC4)ccc3OCC)nc12 [Sildenafil, sildenafil]	–	–	–	–	2.5 ± 1.1	–	–	–	–	–	–	–	–	–	–	–	–	–	Duration of effect ([1]; dose 0.15 mg per rat): 7.5 ± 2.7 min; Increase of intracorporeal pressure ([1]; dose 0.15 mg per rat): 38.5 ± 7.3 mmHg; Increase of intracorporeal pressure, % of papaverine ([1]; dose 0.15 mg per rat): 104.8%
